From patent publication US8710045B2, “Agents for preventing and treating disorders involving modulation of the ryanodine receptors” (The Trustees of Columbia University in the City of New York, priority 2004, dated 2014)
“And” between values parts separate entries of the source, which are not always exact repeats. Identical values can stand only once. Each block holds one compound with its values, some of them ahead of it.

Key:
PKA-phosphorylated RyR2 = molecular target: T1, PKA-phosphorylated RyR2 (Homo sapiens, UniProt Q92736); assay: FKBP12.6 rebinding assay: FKBP12.6 binding to PKA-phosphorylated RyR2 in cardiac SR; conditions: compound 0.5-1000 nM; Michaelis-Menten curve fitting
T1 construct: from tissue
Description: Samples are centrifuged at 95,000 g for 10 min and the pellets are washed three times in 0.2 ml imidazole buffer. The final pellets are pooled and resuspended in imidazole buffer (final concentration≈10 μg/μl). […] Samples then are centrifuged at 100,000 g for 10 minutes and pellets washed 3 times with imidizol buffer. […] Immunoblots are developed using an anti-FKBP antibody (1:3,000 dilution). […] The intracellular solution contains (in mM): CsCl, 60; CaCl2, 1; EGTA, 11; MgCl2, 1; K2ATP, 5; HEPES, 10; aspartic acid, 50; pH 7.4 (CsOH). Under these conditions, it is expected that the measured current was carried by Ba^2+ primarily through L-type calcium channels which is referred to as ICa,L. Drugs are applied by a local solution changer and reach the cell membrane within 1 s.
The FKBP12.6 rebinding assay described above is used to determine the amount of FKBP12.6 binding to PKA-phosphorylated RyR2 at various concentrations (0.5-1000 nM) of the compounds shown. EC50 values are calculated using Michaelis-Menten curve fitting.
The EC50 values are calculated using Michaelis-Menten curve fitting.

hERG current = hERG current (Homo sapiens, UniProt Q12809); assay: hERG current, PatchXpress 7000A automatic parallel patch clamp in hERG-transfected HEK 293 cells (Example 6); conditions: for Individual Data (% Inhibition): single cell; for hERG current inhibition at the highest concentration tested: highest concentration tested (10 μM)
Description: (§1) HEK293 cells were transfected with a plasmid containing the hERG cDNA and a neomycin resistance gene. Stable transfectants were selected by culturing the cells in the presence of G418. The selection pressure was maintained by continued culture in the presence of G418. […] Cells for use in electrophysiology were cultured in 35 mm dishes.
(§2) Onset and steady state block of hERG current was measured using a pulse pattern with fixed amplitudes (conditioning prepulse: +20 mV for 2 seconds; test pulse: −50 mV for 2 seconds) repeated at 10 second intervals, from a holding potential of −80 mV. Peak tail current was measured during the 2 second step to −50 mV. A steady state was maintained for at least 30 seconds before applying the test compound or the positive control. Peak tail current was monitored until a new steady state was achieved. Test compound concentrations were applied cumulatively in ascending order without washout between applications.
(§3) Data acquisition and analysis was performed using the suite of pCLAMP (Vre. 8.2) programs (Axon Instruments, Union City, Calif.). Steady state was defined by the limiting constant rate of change with time (linear time dependence). The steady state before and after application of the test or control compounds was used to calculate the percentage of current inhibited at each concentration. […] Nonlinear squares fits were solved with the Solver add-in for Excel 2000 (Microsoft, Redmond, Wash.).
(§4) Multiple compounds of the invention were tested for their effects on hERG currents. The compounds tested were: ARM036-Na, ARM047, ARM048, ARM050, ARM057, ARM064, ARM074, ARM075, ARM076, ARM077, ARM101, ARM102, ARM103, ARM104, ARM106, ARM107 and ARM26. […] Electrophysiological recordings were made using the PatchXpress 7000 A (Molecular Devices) automatic parallel patch clamp system. […] The duration of exposure to each test concentration was 5 minutes.

hERG = hERG (Homo sapiens, UniProt Q12809); assay: as above; conditions: human, HEK 293 cells stably transfected with hERG cDNA
Description: as §1, §2, §3, §4

[1] = Individual Data (% Inhibition), single cell

hERG current, sequence (Q12809 whole entry): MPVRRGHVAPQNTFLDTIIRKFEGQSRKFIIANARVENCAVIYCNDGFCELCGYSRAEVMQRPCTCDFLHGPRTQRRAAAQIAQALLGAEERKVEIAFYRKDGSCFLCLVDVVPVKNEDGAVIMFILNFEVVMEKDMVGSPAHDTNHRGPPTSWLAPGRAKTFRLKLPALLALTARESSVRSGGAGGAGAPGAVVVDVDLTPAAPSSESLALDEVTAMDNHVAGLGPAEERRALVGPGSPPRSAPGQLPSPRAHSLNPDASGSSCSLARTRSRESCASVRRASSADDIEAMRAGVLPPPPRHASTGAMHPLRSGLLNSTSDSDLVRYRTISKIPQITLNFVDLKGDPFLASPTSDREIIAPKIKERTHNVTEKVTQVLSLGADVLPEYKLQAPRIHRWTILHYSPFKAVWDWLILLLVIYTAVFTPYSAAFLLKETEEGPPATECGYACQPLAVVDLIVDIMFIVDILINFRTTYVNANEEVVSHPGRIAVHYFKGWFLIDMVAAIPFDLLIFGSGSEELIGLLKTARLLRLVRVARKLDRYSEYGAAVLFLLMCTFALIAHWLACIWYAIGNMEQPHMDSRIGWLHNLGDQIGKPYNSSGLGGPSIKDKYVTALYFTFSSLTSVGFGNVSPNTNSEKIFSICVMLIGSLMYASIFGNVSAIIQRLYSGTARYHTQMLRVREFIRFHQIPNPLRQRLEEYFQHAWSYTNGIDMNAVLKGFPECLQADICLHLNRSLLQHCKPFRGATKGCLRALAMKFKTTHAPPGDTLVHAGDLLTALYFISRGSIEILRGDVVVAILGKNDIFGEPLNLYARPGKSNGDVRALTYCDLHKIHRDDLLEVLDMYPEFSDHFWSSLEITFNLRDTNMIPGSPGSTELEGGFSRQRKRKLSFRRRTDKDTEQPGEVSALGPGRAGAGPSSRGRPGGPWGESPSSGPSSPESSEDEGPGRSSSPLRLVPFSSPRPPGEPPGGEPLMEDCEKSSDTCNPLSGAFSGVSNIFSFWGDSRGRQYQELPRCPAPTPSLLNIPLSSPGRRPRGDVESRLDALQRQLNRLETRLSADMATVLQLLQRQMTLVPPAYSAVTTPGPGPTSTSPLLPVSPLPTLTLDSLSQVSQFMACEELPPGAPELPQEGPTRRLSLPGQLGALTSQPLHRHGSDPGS
hERG, sequence (Q12809 whole entry): as above

Compound: COc1ccc2c(c1)CN(C(=O)N1CCN(Cc3ccc4c(c3)OCO4)CC1)CCS2 [S47]
EC50 (PKA-phosphorylated RyR2): 20 nM
IC50 (hERG current): 2500 nM
Mean % hERG Inhibition (hERG current; 0.01 μM): 2.7%
Individual Data (% Inhibition) (hERG current; 0.01 μM, listed as ARM047, 0.01 µM): 1.7% and 3.7%
Mean % hERG Inhibition (hERG current; 0.1 μM): 9.7%
Individual Data (% Inhibition) (hERG current; 0.1 μM, listed as ARM047, 0.1 µM): 6.5% and 12.9%
Mean % hERG Inhibition (hERG current; 1 μM): 29.6%
Individual Data (% Inhibition) (hERG current; 1 μM, listed as ARM047, 1 µM): 30.8% and 20.4% and 37.5%
Mean % hERG Inhibition (hERG current; 10 μM): 78.0%
Individual Data (% Inhibition) (hERG current; 10 μM, listed as ARM047, 10 µM): 82.1% and 75.9%

EC50 (PKA-phosphorylated RyR2): 81 nM
Compound: COc1ccc2c(c1)CN(C(=O)NCc1ccccc1)CCS2 [S49]

Compound: COc1ccc2c(c1)CN(C(=O)N1CCCCC1)CCS2 [S50]
EC50 (PKA-phosphorylated RyR2): 40 nM
Mean % hERG Inhibition (hERG current; 0.01 μM): 1.8%
Individual Data (% Inhibition) (hERG current; 0.01 μM, listed as ARM050, 0.01 µM): 1.1% and 2.4%
Mean % hERG Inhibition (hERG current; 0.1 μM): 3.7%
Individual Data (% Inhibition) (hERG current; 0.1 μM, listed as ARM050, 0.1 µM): 2.7% and 4.7%
Mean % hERG Inhibition (hERG current; 1 μM): 6.1%
Individual Data (% Inhibition) (hERG current; 1 μM, listed as ARM050, 1 µM): 7.1% and 5.1%
Mean % hERG Inhibition (hERG current; 10 μM): 24.2%
Individual Data (% Inhibition) (hERG current; 10 μM, listed as ARM050, 10 µM): 27.0% and 21.3%
hERG current inhibition at the highest concentration tested (hERG current): less than 50%

EC50 (PKA-phosphorylated RyR2): 175 nM
Compound: COc1ccc2c(c1)CN(C(=O)NO)CCS2 [S51]

EC50 (PKA-phosphorylated RyR2): 143 nM
Compound: COc1ccc2c(c1)CN(C(=O)NCc1ccc3c(c1)CCO3)CCS2 [S52]

EC50 (PKA-phosphorylated RyR2): 200 nM
Compound: COc1ccc2c(c1)CN(C(=O)N1CCN(c3ccccc3)CC1)CCS2 [S53]

EC50 (PKA-phosphorylated RyR2): 77 nM
Compound: COc1ccc2c(c1)CN(S(=O)(=O)Nc1cccnc1)CCS2 [S54]

EC50 (PKA-phosphorylated RyR2): 111 nM
Compound: COc1ccc2c(c1)CN(C(=O)CCN1CCCCC1c1nnc(Cc3ccccc3)o1)CCS2 (stereo not shown) [S55]

EC50 (PKA-phosphorylated RyR2): 95 nM
Compound: COc1ccc2c(c1)CN(C(=O)CCN1CCCC[C@H]1c1nnc(Cc3ccccc3)o1)CCS2 [S56]

Compound: COC(=O)C(=O)N1CCSc2ccc(OC)cc2C1 [S57]
EC50 (PKA-phosphorylated RyR2): 73 nM
Mean % hERG Inhibition (hERG current; 0.01 μM): 0.2%
Individual Data (% Inhibition) (hERG current; 0.01 μM, listed as ARM057, 0.01 µM): 0.3% and 0.0%
Mean % hERG Inhibition (hERG current; 0.1 μM): 7.3%
Individual Data (% Inhibition) (hERG current; 0.1 μM, listed as ARM057, 0.1 µM): 4.1% and 10.4%
Mean % hERG Inhibition (hERG current; 1 μM): 2.7%
Individual Data (% Inhibition) (hERG current; 1 μM, listed as ARM057, 1 µM): 5.3% and 0.1%
Mean % hERG Inhibition (hERG current; 10 μM): 13.6%
Individual Data (% Inhibition) (hERG current; 10 μM, listed as ARM057, 10 µM): 18.3% and 8.8%
hERG current inhibition at the highest concentration tested (hERG current): less than 50%

EC50 (PKA-phosphorylated RyR2): 55 nM
Compound: COc1ccc2c(c1)CN(C(=O)CCN1CCCCC1)CCS2 [S58]

EC50 (PKA-phosphorylated RyR2): 102 nM
Compound: CCN(CC)C(=O)C(=O)N1CCSc2ccc(OC)cc2C1 [S59]

EC50 (PKA-phosphorylated RyR2): 68 nM
Compound: COc1ccc2c(c1)CN(C(=O)CCN1CCC(Cc3ccc(N)cc3)CC1)CCS2 [S60]

EC50 (PKA-phosphorylated RyR2): 95 nM
Compound: COc1ccc2c(c1)CN(C(=O)CCN1CCC(Cc3ccc(N)cc3N)CC1)CCS2 [S61]

EC50 (PKA-phosphorylated RyR2): 45 nM
Compound: COc1ccc2c(c1)CN(C(=O)CCN1CCC(Cc3ccc(N=[N+]=[N-])cc3)CC1)CCS2 [S62]

EC50 (PKA-phosphorylated RyR2): 52 nM
Compound: COc1ccc2c(c1)CN(C(=O)CCN1CCC(Cc3ccc(N=[N+]=[N-])cc3N=[N+]=[N-])CC1)CCS2 [S63]

EC50 (PKA-phosphorylated RyR2): 110 nM
Compound: COc1ccc2c(c1)CN(C(=O)NCCc1ccc(O)c(O)c1)CCS2 [S66]

EC50 (PKA-phosphorylated RyR2): 89 nM
Compound: COc1ccc2c(c1)CN(C(=O)NCCc1cnc[nH]1)CCS2 [S67]

EC50 (PKA-phosphorylated RyR2): ~100 nM
Compound: c1ccc2c(c1)CNCCS2 [S68]

Compound: O=C(NO)N1CCSc2ccccc2C1 [S74]
EC50 (PKA-phosphorylated RyR2): 220 nM
Mean % hERG Inhibition (hERG current; 0.01 μM): 1.9%
Individual Data (% Inhibition) (hERG current; 0.01 μM, listed as ARM074, 0.01 µM): 0.8% and 3.0%
Mean % hERG Inhibition (hERG current; 0.1 μM): 4.8%
Individual Data (% Inhibition) (hERG current; 0.1 μM, listed as ARM074, 0.1 µM): 5.9% and 3.7%
Mean % hERG Inhibition (hERG current; 1 μM): 1.3%
Individual Data (% Inhibition) (hERG current; 1 μM, listed as ARM074, 1 µM): 0.2% and 2.4% and 5.6%
Mean % hERG Inhibition (hERG current; 10 μM): 9.5%
Individual Data (% Inhibition) (hERG current; 10 μM, listed as ARM074, 10 µM): 9.3% and 9.6% and 14.0%

Compound: O=C(N1CCNCC1)N1CCSc2ccccc2C1 [S103]
inhibition at 5 min, 0.1 µM (hERG; [1]): 4.2%
inhibition at 5 min, 1 µM (hERG; [1]): 5%
inhibition at 5 min, 10 µM (hERG; Individual Data (% Inhibition), 10 μM, single cell): 28.4%
inhibition at 5 min, 0.01 µM (hERG; Mean % hERG Inhibition, 0.01 μM): 6.8%
inhibition at 5 min, 0.1 µM (hERG; Mean % hERG Inhibition): 3.3%
inhibition at 5 min, 1 µM (hERG; Mean % hERG Inhibition): 7.3%
inhibition at 5 min, 10 µM (hERG; Mean % hERG Inhibition, 10 μM): 29.2%
inhibition at 5 min, 10 µM (hERG; hERG current inhibition at the highest concentration tested, highest concentration tested (10 μM)): < 50%
Individual Data (% Inhibition) (hERG current; 0.01 μM, listed as ARM103, 0.01 µM): 12.1% and 1.5%
Individual Data (% Inhibition) (hERG current; 0.1 μM, listed as ARM103, 0.1 µM): 2.4%
Individual Data (% Inhibition) (hERG current; 1 μM, listed as ARM103, 1 µM): 9.6%
Individual Data (% Inhibition) (hERG current; 10 μM, listed as ARM103, 10 µM): 29.9%
